The values below come from patent US4117148A, “2,9-Dioxatricyclo [4,3,1,0,3,7] decane derivatives, processes for their preparation and pharmaceutical compositions thereof” (Kali-Chemie Pharma GmbH., priority 1977, dated 1978).

Like-named read-outs stand apart in the source and are kept apart here.

In one data set the test system is rat's paw. The data set can be described thus: Randall-Selitto-Test, pressure pain threshold in the rat's paw (antiphlogistic/analgesic). The class given is in vivo. The note with it: for ED50: Rattus norvegicus, sc.
For data set [1], the system named is phenyl benzoquinone syndrome in mice. Description: Phenyl benzoquinone syndrome (writhing test), analgesic activity. The note with it: for ED50: Mus musculus, po, read-out: Analgesic activity, inhibition of PBC-syndrome, ED50. Type of data set: in vivo, mouse. For orientation: Writhing tests count abdominal constrictions after an irritant is injected.
Data set [2] can be described thus: Acute toxicity, LD50 after i.p. administration. The class given is in vivo. Conditions: mouse, in vivo, ip, mice. Here is the method: (§1) The toxicity of the 3-azidomethyl-2,9-dioxatricyclo[4,3,1,0^3,7 ] decanes of the formula (I) is extremely low. The LD50 in mice is in the range of between about 500 and about 700 mg/kg, when determined after i.p. administration of the compounds.

The next data set deals with mice. Description: Acute toxicity, LD50 after i.p. administration. The class given is in vivo. On the procedure:
as §1

The mark [3] stands for this setting: normal paw, read-out: Randall Selitto-test ED50, normal paw.
Setting [4] is: oedema bearing paw, read-out: Randall Selitto-test ED50, oedema bearing paw.

`CC(=O)Oc1ccccc1C(=O)O` [Apsirin, reference compound]: the 50% effective dose (ED50) is over 700 mg/kg in the data set on rat's paw (setting [3]), 440 mg/kg in the data set with rat's paw (setting [4]) and 240 mg/kg in data set [1].

For `COc1ccc2c(c1)c(CC(=O)O)c(C)n2C(=O)c1ccc(Cl)cc1` [Indomethazine, reference compound], the 50% effective dose (ED50) came to 250 mg/kg in the data set with rat's paw (setting [3]) and 64 mg/kg in the data set on rat's paw (setting [4]).

As to `COc1ccc2cc([C@H](C)C(=O)O)ccc2c1` [Naproxene, reference compound], the ED50 with rat's paw (setting [3]) is 250 mg/kg; in the data set on rat's paw (setting [4]), 147 mg/kg; in data set [1] (mouse, p.o.), 30 mg/kg.

As to `CCCCC1C(=O)N(c2ccccc2)N(c2ccccc2)C1=O` [Phenylbutazone, reference compound], the ED50 with rat's paw (setting [3]) is over 100 mg/kg; in the data set on rat's paw (setting [4]), 58 mg/kg; in data set [1] (mouse, p.o.), over 30 mg/kg.

In the case of `COC1OC2OC3(CN=[N+]=[N-])C(OC(C)=O)CC(C2C)C13` (stereo not drawn) [X, 3-azidomethyl-4β-acetoxy-8-methoxy-10β-methyl-2,9-DTD], the ED50 with rat's paw (setting [3]) was over 32 mg/kg. In the data set on rat's paw (s.c., oedema bearing paw), the “Randall Selitto-test ED50, oedema bearing paw” value is recorded as over 32 mg/kg. Further, the “Analgesic activity, inhibition of PBC-syndrome, ED50” value in data set [1] (mouse, p.o.) is reported as ~ 10 mg/kg. In data set [2], this compound registered an LD50 of 739 mg/kg.

Regarding `COC1OC2OC3(CN=[N+]=[N-])C(=O)CC(C2C)C13` (stereo not drawn) [XVIII, 3-azidomethyl-8-methoxy-10β-methyl-2,9-DTD-4-one], the ED50 is over 100 mg/kg in the data set on rat's paw (setting [3]); over 100 mg/kg in the data set on rat's paw (setting [4]); under 56 mg/kg in data set [1] (mouse, p.o.). Also, the LD50 in data set [2] amounted to 632 mg/kg.

Take `COC1OC2OC3(CN=[N+]=[N-])C(O)CC(C2C)C13` (stereo not drawn) [XXII, 3-azidomethyl-4α-hydroxy-8-methoxy-10β-methyl-2,9-DTD]: the ED50 was over 32 mg/kg with rat's paw (setting [3]); over 32 mg/kg in the data set with rat's paw (setting [4]); 18.5 mg/kg in data set [1] (mouse, p.o.). The LD50 in data set [2] amounted to 571 mg/kg.

With `C=C1C2OC(OC)C3C1CC(OC(C)=O)C3(CN=[N+]=[N-])O2` (stereo not drawn) [XXV, 3-azidomethyl-4α-acetoxy-8-methoxy-10-methylene-2,9-DTD], the ED50 with rat's paw (setting [3]) was 100 mg/kg; in the data set on rat's paw (setting [4]) it was 100 mg/kg; in data set [1] (mouse, p.o.), about 56 mg/kg.

As for `COC1OC2OC3(CN=[N+]=[N-])C(OC(C)=O)CC(C2C)C13` (stereo not drawn) [XXVI, 3-azidomethyl-4α-acetoxy-8-methoxy-10β-methyl-2,9-DTD], the “Randall Selitto-test ED50, normal paw” value in the data set on rat's paw (s.c., normal paw) is recorded as ~ 32 mg/kg. For the same compound, the “Randall Selitto-test ED50, oedema bearing paw” value with rat's paw (s.c., oedema bearing paw) is 15 mg/kg. For the same compound, in data set [1] (mouse, p.o.), the “Analgesic activity, inhibition of PBC-syndrome, ED50” value is under 3.2 mg/kg. For the same compound, the LD50 with mice is listed as 574 mg/kg.

In general, ED50 refers to the dose at which the effect has come halfway, by size or by number of responders. As a reminder, the LD50 is the dose expected to kill half of the subjects tested. Read a high LD50 as lower toxicity.
